# Source: ChEMBL document CHEMBL1201862, “PubChem BioAssay data set” (2004)
# Active and inactive are the calls of the source.
# Assays:
# [1] = viability of uninfected HEp-2 cells – cell-based, HTS, cytotoxicity control for RSV inhibitor project, dose response (AID 2410); assay type: functional; details: human respiratory syncytial virus
# [2] = cells; assay type: functional, cell-based
# [3] = cells; assay type: functional, cell-based; remark: listed apart in the source
# [4] = target: Cytochrome P450 2C19 (Homo sapiens, UniProt P33261); assay: Cytochrome panel assay with activity outcomes. Panel member name: p450-cyp2c19 Compounds with AC50 equal or less than 10 uM are considered active; assay type: functional; details: read-out: AC50
# [5] = target: T1, Cytochrome P450 1A2 (Homo sapiens, UniProt P05177);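 further: PubChem cytochrome P450 panel assay, CYP1A2 panel member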
# T1 sequence (P05177 whole entry): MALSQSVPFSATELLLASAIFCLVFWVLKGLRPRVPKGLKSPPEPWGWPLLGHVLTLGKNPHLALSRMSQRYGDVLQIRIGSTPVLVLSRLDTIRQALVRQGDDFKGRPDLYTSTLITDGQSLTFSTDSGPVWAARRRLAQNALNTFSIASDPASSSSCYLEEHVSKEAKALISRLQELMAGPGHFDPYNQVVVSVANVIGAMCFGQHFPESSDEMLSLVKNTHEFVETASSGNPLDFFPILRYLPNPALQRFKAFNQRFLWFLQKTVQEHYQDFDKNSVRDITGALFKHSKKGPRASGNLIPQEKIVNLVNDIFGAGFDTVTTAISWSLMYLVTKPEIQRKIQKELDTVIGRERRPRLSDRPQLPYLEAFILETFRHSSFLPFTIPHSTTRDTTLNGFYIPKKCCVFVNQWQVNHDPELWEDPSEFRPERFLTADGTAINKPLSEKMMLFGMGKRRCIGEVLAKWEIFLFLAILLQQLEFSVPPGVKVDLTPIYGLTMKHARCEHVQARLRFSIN
# [6] = target: Cytochrome P450 3A4 (Homo sapiens, UniProt P08684);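 further: CYP3A4 tested as one member of a cytochrome P450 panel screen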
# [7] = target: Cytochrome P450 2C9 (Homo sapiens, UniProt P11712)
# Chain of Cytochrome P450 2C9 (P11712 whole entry): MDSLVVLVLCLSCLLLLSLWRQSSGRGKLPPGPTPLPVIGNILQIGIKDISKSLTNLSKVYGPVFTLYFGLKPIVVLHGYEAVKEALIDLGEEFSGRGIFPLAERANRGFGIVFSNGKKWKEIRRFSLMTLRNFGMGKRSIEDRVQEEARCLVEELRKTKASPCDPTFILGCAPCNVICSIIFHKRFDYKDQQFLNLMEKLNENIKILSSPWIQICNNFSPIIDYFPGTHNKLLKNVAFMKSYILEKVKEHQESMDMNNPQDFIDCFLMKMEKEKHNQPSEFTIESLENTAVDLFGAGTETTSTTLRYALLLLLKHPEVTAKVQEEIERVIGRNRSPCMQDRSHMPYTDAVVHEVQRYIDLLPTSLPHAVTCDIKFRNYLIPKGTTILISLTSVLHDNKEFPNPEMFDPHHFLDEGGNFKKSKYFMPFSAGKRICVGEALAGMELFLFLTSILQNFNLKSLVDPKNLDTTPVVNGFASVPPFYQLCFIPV
# Chain of Cytochrome P450 2C19 (P33261 whole entry): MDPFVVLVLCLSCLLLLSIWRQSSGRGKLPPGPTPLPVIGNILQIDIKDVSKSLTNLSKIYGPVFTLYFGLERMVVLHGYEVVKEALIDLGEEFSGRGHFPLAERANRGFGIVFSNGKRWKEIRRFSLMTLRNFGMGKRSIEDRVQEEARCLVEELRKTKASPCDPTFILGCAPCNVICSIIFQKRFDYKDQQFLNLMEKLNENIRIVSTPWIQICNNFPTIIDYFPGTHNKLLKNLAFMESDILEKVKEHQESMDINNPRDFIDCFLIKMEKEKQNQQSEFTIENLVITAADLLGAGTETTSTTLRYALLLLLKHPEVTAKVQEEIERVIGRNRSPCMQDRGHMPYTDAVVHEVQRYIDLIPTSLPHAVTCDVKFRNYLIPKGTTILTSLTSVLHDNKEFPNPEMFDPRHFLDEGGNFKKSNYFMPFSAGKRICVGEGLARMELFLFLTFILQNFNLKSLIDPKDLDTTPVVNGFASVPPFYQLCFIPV
# Chain of Cytochrome P450 3A4 (P08684 whole entry): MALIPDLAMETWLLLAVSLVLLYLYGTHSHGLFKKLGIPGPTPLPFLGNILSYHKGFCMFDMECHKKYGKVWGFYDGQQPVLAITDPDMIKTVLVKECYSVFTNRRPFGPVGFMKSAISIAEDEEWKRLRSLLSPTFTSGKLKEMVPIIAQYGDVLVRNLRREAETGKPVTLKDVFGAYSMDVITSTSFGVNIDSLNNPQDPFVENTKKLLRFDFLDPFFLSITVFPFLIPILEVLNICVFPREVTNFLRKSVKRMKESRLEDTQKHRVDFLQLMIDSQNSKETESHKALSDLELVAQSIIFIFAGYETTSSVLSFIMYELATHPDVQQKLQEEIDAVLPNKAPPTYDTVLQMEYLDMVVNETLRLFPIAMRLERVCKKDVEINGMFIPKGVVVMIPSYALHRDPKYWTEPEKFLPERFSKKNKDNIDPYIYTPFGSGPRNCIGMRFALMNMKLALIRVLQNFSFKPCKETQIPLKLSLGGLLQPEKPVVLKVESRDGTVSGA
SMILES,CC50 [1],AC50 [4],also measured
Cc1cc(-n2nnc3ccccc32)nc2ccccc12,19.1 µM (active),–,–
O=[N+]([O-])c1ccc(OCCCCN2CCCCC2)cc1,–,–,EC50 [2]: > 350 µM (not active); EC50 [3]: > 350 µM (not active)
Cc1ncsc1C(=O)N1N=C2/C(=C/c3ccccc3)CCCC2C1c1ccccc1 (centres undefined),–,17.8 µM (inconclusive),AC50 [5]: 17.8 µM (inconclusive)
CC(Oc1ccc2c3c(c(=O)oc2c1)CCCC3)C(=O)NCC(O)c1ccccc1 (centres undefined),–,–,EC50 [3]: > 350 µM (not active)
CCOC(=O)c1c(C)[nH]c(C(=O)/C(C#N)=C/c2ccc(OC)c(OC)c2)c1C,> 50 µM (active),–,–
CC(C)C(NC(=O)C1CCCCC1)C(=O)NC1CCN(Cc2ccccc2)CC1 (centres undefined),–,3.55 µM (inconclusive),–
CCN1C=C(Cc2ccccc2C)C2=C(C1)C(c1ccccc1C)C(C#N)=C(N)O2 (centres undefined),13.1 µM (active),–,–
COc1ccc(-c2nc3n(c2Br)CCC3)cc1,30.9 µM (active),–,–
CCOc1ccc(CNc2ccc(CNc3nc[nH]n3)cc2)cc1,18 µM (active),–,–
O=C(CSc1ncccn1)Nc1ccc(S(=O)(=O)N2CCCCC2)cc1,–,25.1 µM (inconclusive),AC50 [6]: 25.1 µM (inconclusive)
C=CCn1c(SCC(=O)Nc2ncc(Cc3ccc(Br)cc3)s2)nnc1-c1ccncc1,–,2.82 µM (inconclusive),–
Cc1ccc(NC(=O)C2CC(=O)n3c(nc4ccccc43)N2)cc1 (centres undefined),–,6.31 µM (inconclusive),AC50 [6]: 17.8 µM (inconclusive); AC50 [7]: 0.0355 µM (inconclusive)
COc1cc(C(=O)NCC(c2cccnc2)N2CCN(C)CC2)cc(OC)c1OC (centres undefined),–,39.8 µM (inconclusive),–
COC(=O)Cn1c(C(=O)N(C)C)cc2c1C[C@H]1CN(C(=O)c3ccccc3)[C@@](Cc3ccc(OC)cc3)(C(=O)OC)[C@@H]21,–,20 µM (inconclusive),AC50 [7]: 12.6 µM (inconclusive)
CN(Cc1cccc(C(F)(F)F)c1)C(=O)C1CCC(=O)N(CC2CCCCC2)C1 (centres undefined),–,–,EC50 [2]: > 350 µM (not active); EC50 [3]: > 350 µM (not active)
CCC(=O)c1ccc(N2CCN(C(=O)c3ccc(Br)cc3)CC2)c(F)c1,–,–,EC50 [2]: > 350 µM (not active); EC50 [3]: > 350 µM (not active)
